Results reported in patent US9593108B2, “Compounds and methods for antiviral treatment” (PTC Therapeutics, Inc., priority 2009, dated 2017).

Experiments:
[1] = system: HCV replicon RNA (GenBank Accession No. AJ242654); assay: HCV Replicon Assay (replicon RNA reduction and/or Fluc reporter signal); assay type: cell-based, Hepatitis C virus; details: Hepatitis C virus, 72 h, replicon-containing cells cultured with test compound for up to 3 days
How it was run: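 IC50 values mostly reflect the drop in replicon RNA, though Fluc reporter signal may also be used. Compound incubated with cells carrying the bicistronic replicon for as long as 3 days; interferon served as positive control.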

Compound	melting point [°C]	IC50 [1] [µM]
C[C@H](NS(=O)(=O)c1ccc(-c2c(C#N)c3cc(C(F)(F)F)cnc3n2C2CCC2)cc1)C(F)(F)F [Cpd 300, 4-[3-cyano-1-cyclobutyl-5-(trifluoromethyl)-1H-pyrrolo[2,3-b]pyridin-2-yl]-N-[(2S)-1,1,1-trifluoropropan-2-yl]benzenesulfonamide]	218 to 220	< 0.5
Cc1cc(S(=O)(=O)N[C@@H](C)C(F)(F)F)cnc1-c1c(C#N)c2cc(C(F)(F)F)cnc2n1C1CCC1 [Cpd 301, 6-[3-cyano-1-cyclobutyl-5-(trifluoromethyl)-1H-pyrrolo[2,3-b]pyridin-2-yl]-5-methyl-N-[(2S)-1,1,1-trifluoropropan-2-yl]pyridine-3-sulfonamide]	190 to 194	< 0.5
N#Cc1c(-c2ccc(S(=O)(=O)NC3CCC3)cn2)n(C2CCC2)c2ncc(C(F)(F)F)cc12 [Cpd 302, 6-[3-cyano-1-cyclobutyl-5-(trifluoromethyl)-1H-pyrrolo[2,3-b]pyridin-2-yl]-N-cyclobutylpyridine-3-sulfonamide]	197 to 199	< 0.5
C[C@H](NS(=O)(=O)c1ccc(-c2c(C#N)c3cc(C(F)(F)F)cnc3n2-c2ncccn2)nc1)C(F)(F)F [Cpd 303, 6-[3-cyano-1-(pyrimidin-2-yl)-5-(trifluoromethyl)-1H-pyrrolo[2,3-b]pyridin-2-yl]-N-[(2S)-1,1,1-trifluoropropan-2-yl]pyridine-3-sulfonamide]	213 to 215	< 0.5
C[C@H](NS(=O)(=O)c1ccc(-c2c(C(N)=O)c3cc(C(F)(F)F)cnc3n2C2CCC2)nc1)C(F)(F)F [Cpd 304, 1-cyclobutyl-5-(trifluoromethyl)-2-(5-{[(2S)-1,1,1-trifluoropropan-2-yl]sulfamoyl}pyridin-2-yl)-1H-pyrrolo[2,3-b]pyridine-3-carboxamide]	219 to 221	< 0.5
C[C@H](NS(=O)(=O)c1ccc(-c2c(C#N)c3cc(S(C)(=O)=O)cnc3n2C2CCCC2)nc1)C(F)(F)F [Cpd 305, 6-[3-cyano-1-cyclopentyl-5-(methylsulfonyl)-1H-pyrrolo[2,3-b]pyridin-2-yl]-N-[(2S)-1,1,1-trifluoropropan-2-yl]pyridine-3-sulfonamide]	260 to 261	< 0.5
C[C@H](NS(=O)(=O)c1ccc(-c2c(C#N)c3cc(Cl)cnc3n2-c2ccccn2)nc1)C(F)(F)F [Cpd 306, 6-[5-chloro-3-cyano-1-(pyridin-2-yl)-1H-pyrrolo[2,3-b]pyridin-2-yl]-N-[(2S)-1,1,1-trifluoropropan-2-yl]pyridine-3-sulfonamide]	179 to 181	< 0.5
C[C@H](NS(=O)(=O)c1ccc(-c2c(C#N)c3cc(Cl)cnc3n2-c2cnccn2)nc1)C(F)(F)F [Cpd 307, 6-[5-chloro-3-cyano-1-(pyrazin-2-yl)-1H-pyrrolo[2,3-b]pyridin-2-yl]-N-[(2S)-1,1,1-trifluoropropan-2-yl]pyridine-3-sulfonamide]	247 to 249	< 0.5
C[C@H](NS(=O)(=O)c1ccc(-c2c(C#N)c3cc(Cl)cnc3n2-c2ccccc2)nc1)C(F)(F)F [Cpd 308, 6-(5-chloro-3-cyano-1-phenyl-1H-pyrrolo[2,3-b]pyridin-2-yl)-N-[(2S)-1,1,1-trifluoropropan-2-yl]pyridine-3-sulfonamide]	211 to 213	< 0.5
COc1cnc2c(c1)c(C#N)c(-c1ccc(S(=O)(=O)NC3CCC3)cn1)n2C1CCC1 [Cpd 309, 6-(3-cyano-1-cyclobutyl-5-methoxy-1H-pyrrolo[2,3-b]pyridin-2-yl)-N-cyclobutylpyridine-3-sulfonamide]	203 to 207	< 0.5
COc1cnc2c(c1)c(C#N)c(-c1ccc(S(=O)(=O)NC3CC3)cn1)n2C1CCC1 [Cpd 310, 6-(3-cyano-1-cyclobutyl-5-methoxy-1H-pyrrolo[2,3-b]pyridin-2-yl)-N-cyclopropylpyridine-3-sulfonamide]	161 to 162	< 0.5
COc1cnc2c(c1)c(C#N)c(-c1ccc(S(=O)(=O)NC3(C)CC3)cn1)n2C1CCC1 [Cpd 311, 6-(3-cyano-1-cyclobutyl-5-methoxy-1H-pyrrolo[2,3-b]pyridin-2-yl)-N-(1-methylcyclopropyl)pyridine-3-sulfonamide]	179 to 181	< 0.5
COc1cnc2c(c1)c(C#N)c(-c1ncc(S(=O)(=O)NC3(C)CC3)cn1)n2C1CCC1 [Cpd 313, 2-(3-cyano-1-cyclobutyl-5-methoxy-1H-pyrrolo[2,3-b]pyridin-2-yl)-N-(1-methylcyclopropyl)pyrimidine-5-sulfonamide]	209 to 212	< 0.5
C[C@H](NS(=O)(=O)c1ccc(-c2c(C#N)c3cc(C(F)(F)F)cnc3n2-c2cnccn2)nc1)C(F)(F)F [Cpd 316, 6-[3-cyano-1-(pyrazin-2-yl)-5-(trifluoromethyl)-1H-pyrrolo[2,3-b]pyridin-2-yl]-N-[(2S)-1,1,1-trifluoropropan-2-yl]pyridine-3-sulfonamide]	226 to 228	< 0.5
C[C@H](NS(=O)(=O)c1ccc(-c2c(C#N)c3cc(C(F)(F)F)cnc3n2-c2ccccn2)nc1)C(F)(F)F [Cpd 317, 6-[3-cyano-1-(pyridin-2-yl)-5-(trifluoromethyl)-1H-pyrrolo[2,3-b]pyridin-2-yl]-N-[(2S)-1,1,1-trifluoropropan-2-yl]pyridine-3-sulfonamide]	110 to 112	< 0.5
C[C@H](NS(=O)(=O)c1ccc(-c2c(C#N)c3cc(C(F)(F)F)cnc3n2-c2ccccc2)nc1)C(F)(F)F [Cpd 318, 6-[3-cyano-1-phenyl-5-(trifluoromethyl)-1H-pyrrolo[2,3-b]pyridin-2-yl]-N-[(2S)-1,1,1-trifluoropropan-2-yl]pyridine-3-sulfonamide]	186 to 188	< 0.5
C[C@H](NS(=O)(=O)c1ccc(-c2c(C#N)c3cc(F)cnc3n2-c2ncccn2)nc1)C(F)(F)F [Cpd 320, 6-[3-cyano-5-fluoro-1-(pyrimidin-2-yl)-1H-pyrrolo[2,3-b]pyridin-2-yl]-N-[(2S)-1,1,1-trifluoropropan-2-yl]pyridine-3-sulfonamide]	171 to 173	< 0.5
C[C@H](NS(=O)(=O)c1ccc(-c2c(C#N)c3cc(F)cnc3n2-c2cnccn2)nc1)C(F)(F)F [Cpd 321, 6-[3-cyano-5-fluoro-1-(pyrazin-2-yl)-1H-pyrrolo[2,3-b]pyridin-2-yl]-N-[(2S)-1,1,1-trifluoropropan-2-yl]pyridine-3-sulfonamide]	212 to 214	< 0.5
C[C@H](NS(=O)(=O)c1ccc(-c2c(C#N)c3cc(F)cnc3n2-c2ccccn2)nc1)C(F)(F)F [Cpd 322, 6-[3-cyano-5-fluoro-1-(pyridin-2-yl)-1H-pyrrolo[2,3-b]pyridin-2-yl]-N-[(2S)-1,1,1-trifluoropropan-2-yl]pyridine-3-sulfonamide]	229 to 231	< 0.5
CSc1cnc2c(c1)c(C#N)c(-c1ccc(S(=O)(=O)N[C@@H](C)C(F)(F)F)cn1)n2C1CCC1 [Cpd 323, 6-[3-cyano-1-cyclobutyl-5-(methylsulfanyl)-1H-pyrrolo[2,3-b]pyridin-2-yl]-N-[(2S)-1,1,1-trifluoropropan-2-yl]pyridine-3-sulfonamide]	154 to 158	< 0.5
C[C@H](NS(=O)(=O)c1ccc(-c2c(C(N)=O)c3cc(Cl)cnc3n2C2CCCC2)nc1)C(F)(F)F [Cpd 324, 5-chloro-1-cyclopentyl-2-(5-{[(2S)-1,1,1-trifluoropropan-2-yl]sulfamoyl}pyridin-2-yl)-1H-pyrrolo[2,3-b]pyridine-3-carboxamide]	289 to 295	< 0.5
NC(=O)c1c(-c2ccc(S(=O)(=O)NC3(C(F)(F)F)CC3)cn2)n(C2CCC2)c2ncc(Cl)cc12 [Cpd 325, 5-chloro-1-cyclobutyl-2-(5-{[1-(trifluoromethyl)cyclopropyl]sulfamoyl}pyridin-2-yl)-1H-pyrrolo[2,3-b]pyridine-3-carboxamide]	238 to 240	< 0.5
CC(C)(NS(=O)(=O)c1ccc(-c2c(C(N)=O)c3cc(Cl)cnc3n2C2CCC2)nc1)C(F)(F)F [Cpd 326, 5-chloro-1-cyclobutyl-2-{5-[(1,1,1-trifluoro-2-methylpropan-2-yl)sulfamoyl]pyridin-2-yl}-1H-pyrrolo[2,3-b]pyridine-3-carboxamide]	239 to 241	< 0.5
CC(C)(C)NS(=O)(=O)c1ccc(-c2c(C(N)=O)c3cc(Cl)cnc3n2C2CCC2)nc1 [Cpd 327, 2-[5-(tert-butylsulfamoyl)pyridin-2-yl]-5-chloro-1-cyclobutyl-1H-pyrrolo[2,3-b]pyridine-3-carboxamide]	240 to 241	< 0.5
NC(=O)c1c(-c2ccc(S(=O)(=O)NC3(C(F)(F)F)CC3)cc2)n(C2CCC2)c2ncc(Cl)cc12 [Cpd 328, 5-chloro-1-cyclobutyl-2-(4-{[1-(trifluoromethyl)cyclopropyl]sulfamoyl}phenyl)-1H-pyrrolo[2,3-b]pyridine-3-carboxamide]	271 to 272	< 0.5
CC(C)(NS(=O)(=O)c1ccc(-c2c(C(N)=O)c3cc(Cl)cnc3n2C2CCC2)cc1)C(F)(F)F [Cpd 329, 5-chloro-1-cyclobutyl-2-{4-[(1,1,1-trifluoro-2-methylpropan-2-yl)sulfamoyl]phenyl}-1H-pyrrolo[2,3-b]pyridine-3-carboxamide]	263 to 265	< 0.5
COc1ccc(-n2c(-c3ccc(S(=O)(=O)N[C@@H](C)C(F)(F)F)cn3)c(C#N)c3cc(C(F)(F)F)cnc32)nc1 [Cpd 332, 6-[3-cyano-1-(5-methoxypyridin-2-yl)-5-(trifluoromethyl)-1H-pyrrolo[2,3-b]pyridin-2-yl]-N-[(2S)-1,1,1-trifluoropropan-2-yl]pyridine-3-sulfonamide]	203 to 206	0.5 to 2
